Assay results: ChEMBL document CHEMBL2203097, “7-Phenyl-pyrido[2,3-d]pyrimidine-2,4-diamines: novel and highly selective protein tyrosine phosphatase 1B inhibitors” (Bioorg Med Chem Lett, 2012)
Active and inactive are the calls of the source. No cut-off for these calls is given here.

Columns and labels:
[1] = Oral bioavailability in C57 mouse at 50 mg/kg; type: ADME, organism-based; conditions: in vivo
[2] = target: T1, Tyrosine-protein phosphatase non-receptor type 1 (Homo sapiens) (UniProt P18031); conditions: 0.29 to 3.3 uM
T1 sequence (whole entry): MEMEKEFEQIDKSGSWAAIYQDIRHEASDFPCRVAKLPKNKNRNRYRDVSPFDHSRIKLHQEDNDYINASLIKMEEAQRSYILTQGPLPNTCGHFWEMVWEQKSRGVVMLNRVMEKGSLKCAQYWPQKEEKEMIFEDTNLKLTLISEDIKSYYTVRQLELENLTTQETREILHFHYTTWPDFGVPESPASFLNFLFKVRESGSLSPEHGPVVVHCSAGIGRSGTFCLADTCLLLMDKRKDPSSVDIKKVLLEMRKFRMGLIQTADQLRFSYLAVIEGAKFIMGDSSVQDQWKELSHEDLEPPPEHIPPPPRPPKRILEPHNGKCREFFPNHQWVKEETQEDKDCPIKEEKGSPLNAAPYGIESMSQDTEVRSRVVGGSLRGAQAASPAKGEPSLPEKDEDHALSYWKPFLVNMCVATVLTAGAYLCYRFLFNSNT
Description: Uncompetitive inhibition of human PTP1B (1 to 321 amino acid residues) expressed in Escherichia coli using DiFMUP as substrate at 0.29 to 3.3 uM by Lineweaver-Burke plot analysis

[3] = AUC in C57 mouse at 5 mg/kg, iv; type: ADME, organism-based; parameters: dose 5 mg/kg, route intravenous; conditions: plasma
[4] = Cmax in C57 mouse at 50 mg/kg, po; type: ADME, organism-based; parameters: dose 50 mg/kg, route oral; conditions: in vivo
Homo sapiens [5] = organism: Homo sapiens; test: Selectivity ratio of IC50 for PTPalpha to IC50 for human PTP1B (1 to 321 amino acid residues)
[6] = Clearance in C57 mouse at 5 mg/kg, iv; type: ADME, organism-based; parameters: dose 5 mg/kg, route intravenous; conditions: in vivo
Homo sapiens [7] = organism: Homo sapiens; test: Selectivity ratio of IC50 for YOP to IC50 for human PTP1B (1 to 321 amino acid residues)
Homo sapiens [8] = organism: Homo sapiens; test: Selectivity ratio of IC50 for PTPbeta to IC50 for human PTP1B (1 to 321 amino acid residues)
[9] = AUC in C57 mouse at 50 mg/kg, po; type: ADME, organism-based; parameters: dose 50 mg/kg, route oral; conditions: plasma
Homo sapiens [10] = organism: Homo sapiens; test: Selectivity ratio of IC50 for HCP to IC50 for human PTP1B (1 to 321 amino acid residues)
Homo sapiens [11] = organism: Homo sapiens; test: Selectivity ratio of IC50 for CD45 to IC50 for human PTP1B (1 to 321 amino acid residues)
[12] = Half life in C57 mouse at 50 mg/kg, po; type: ADME, organism-based; parameters: dose 50 mg/kg, route oral; conditions: in vivo
Homo sapiens [13] = organism: Homo sapiens; test: Selectivity ratio of IC50 for PTPepsilon to IC50 for human PTP1B (1 to 321 amino acid residues)
[14] = target: T2, Tyrosine-protein phosphatase non-receptor type 1 (Homo sapiens, UniProt P18031); test: Inhibition of human PTP1B (1 to 321 amino acid residues) expressed in Escherichia coli using TRDI(pY)E as substrate incubated for 15 mins prior to substrate addition measured after 20 mins by malachite green staining-based colorimetric assay
T2 sequence (P18031 whole entry): T1 sequence (whole entry)

Homo sapiens [15] = organism: Homo sapiens; test: Selectivity ratio of IC50 for TCPTP to IC50 for human PTP1B (1 to 321 amino acid residues)
Homo sapiens [16] = organism: Homo sapiens; test: Selectivity ratio of IC50 for SHP2 to IC50 for human PTP1B (1 to 321 amino acid residues)
Homo sapiens [17] = organism: Homo sapiens; test: Selectivity ratio of IC50 for LAR to IC50 for human PTP1B (1 to 321 amino acid residues)
[18] = Volume of distribution in C57 mouse at 5 mg/kg, iv; type: ADME, organism-based; parameters: dose 5 mg/kg, route intravenous; conditions: in vivo
Homo sapiens [19] = organism: Homo sapiens; test: Selectivity ratio of IC50 for PTPgamma to IC50 for human PTP1B (1 to 321 amino acid residues)
[20] = Clearance in C57 mouse at 10 mg/kg, iv; type: ADME, organism-based; parameters: dose 10 mg/kg, route intravenous; conditions: in vivo
[21] = AUC in C57 mouse at 10 mg/kg, iv; type: ADME, organism-based; parameters: dose 10 mg/kg, route intravenous; conditions: plasma
[22] = Volume of distribution in C57 mouse at 10 mg/kg, iv; type: ADME, organism-based; parameters: dose 10 mg/kg, route intravenous; conditions: in vivo

CNc1nc(N)nc2nc(-c3ccccc3C(F)(F)F)ccc12
bioavailability [1]: 66% | inhibition [2]: Active | AUC [3]: 1370 ng·h/mL | Cmax [4]: 3530 ng/mL | Ratio IC50 (Homo sapiens [5]): > 100 | clearance [6]: 61 mL/min/kg | Ratio IC50 (Homo sapiens [7]): > 100 | Ratio IC50 (Homo sapiens [8]): > 100 | AUC [9]: 8990 ng·h/mL | Ratio IC50 (Homo sapiens [10]): > 100 | Ratio IC50 (Homo sapiens [11]): > 100 | half-life [12]: 7.2 h | Ratio IC50 (Homo sapiens [13]): > 100 | IC50 [14]: 480 nM | Ratio IC50 (Homo sapiens [15]): 2 | Ratio IC50 (Homo sapiens [16]): > 100 | Ratio IC50 (Homo sapiens [17]): > 100 | Vd [18]: 1.8 L/kg | Ratio IC50 (Homo sapiens [19]): > 100

CCCc1cc2c(NC)nc(N)nc2nc1-c1ccccc1C(F)(F)F
IC50 [14]: 270 nM

Nc1nc(NCCO)c2ccc(-c3ccccc3C(F)(F)F)nc2n1
IC50 [14]: 1850 nM

CNc1nc(N)nc2nc(-c3cccc(Cl)c3Cl)ccc12
IC50 [14]: 1180 nM

CNc1nc(N)nc2nc(-c3c(N4CCCC4)cccc3C(F)(F)F)ccc12
IC50 [14]: 430 nM

CNc1nc(N)nc2nc(-c3c(OC)cccc3C(F)(F)F)ccc12
IC50 [14]: 560 nM

CNc1nc(N)nc2nc(-c3c(Oc4ccccc4)cccc3C(F)(F)F)ccc12
bioavailability [1]: 32% | Cmax [4]: 2200 ng/mL | Ratio IC50 (Homo sapiens [5]): > 100 | Ratio IC50 (Homo sapiens [7]): > 100 | Ratio IC50 (Homo sapiens [8]): > 100 | AUC [9]: 11000 ng·h/mL | Ratio IC50 (Homo sapiens [10]): > 100 | Ratio IC50 (Homo sapiens [11]): > 100 | half-life [12]: 1.3 h | Ratio IC50 (Homo sapiens [13]): > 100 | IC50 [14]: 200 nM | clearance [20]: 24 mL/min/kg | Ratio IC50 (Homo sapiens [15]): 2 | Ratio IC50 (Homo sapiens [16]): > 100 | Ratio IC50 (Homo sapiens [17]): > 100 | AUC [21]: 6970 ng·h/mL | Ratio IC50 (Homo sapiens [19]): > 100 | Vd [22]: 0.9 L/kg

CNc1nc(N)nc2nc(-c3ccccc3Cl)ccc12
IC50 [14]: 1160 nM

CNc1nc(N)nc2nc(-c3ccc(Cl)cc3Cl)ccc12
IC50 [14]: 610 nM

CNc1nc(N)nc2nc(-c3ccccc3C(F)(F)F)c(S(C)(=O)=O)cc12
IC50 [14]: 1000 nM

CNc1nc(N)nc2nc(-c3ccccc3Br)ccc12
IC50 [14]: 530 nM

CNc1nc(N)nc2nc(-c3c(SC)cccc3C(F)(F)F)ccc12
IC50 [14]: 350 nM

CNc1nc(N)nc2nc(-c3ccccc3C(=O)O)ccc12
IC50 [14]: 2390 nM

CNc1nc(N)nc2nc(-c3c(F)cccc3C(F)(F)F)ccc12
IC50 [14]: 260 nM

CNc1nc(N)nc2nc(-c3c(Cl)cccc3N3CCCC3)ccc12
IC50 [14]: 820 nM

CNc1nc(N)nc2nc(-c3ccccc3[N+](=O)[O-])ccc12
IC50 [14]: 1370 nM

CCNc1nc(N)nc2nc(-c3ccccc3C(F)(F)F)ccc12
IC50 [14]: 1340 nM

CNc1nc(N)nc2nc(-c3c(N4CCCCC4)cccc3C(F)(F)F)ccc12
IC50 [14]: 1350 nM

CNc1nc(N)nc2nc(-c3cc(Cl)ccc3Cl)ccc12
IC50 [14]: 960 nM

CCCNc1nc(N)nc2nc(-c3ccccc3C(F)(F)F)ccc12
IC50 [14]: 2430 nM

CNc1nc(N)nc2nc(-c3c(N4CCOCC4)cccc3C(F)(F)F)ccc12
IC50 [14]: 1150 nM

CNc1nc(N)nc2nc(-c3ccccc3C(F)(F)F)c(C)cc12
IC50 [14]: 500 nM

CNc1nc(N)nc2nc(-c3ccccc3OC)ccc12
IC50 [14]: 2790 nM

CNc1nc(N)nc2nc(-c3c(F)cccc3N3CCCC3)ccc12
IC50 [14]: 620 nM
